Columns and labels:
Test in all cases: Ambit kinase profiling, competition binding
NEK9 = target: T1, NEK9 (Homo sapiens, UniProt Q8TD19); conditions: compound concentration 10 uM, read-out: Percent Competition
T1 construct: purchased Ambit Biosciences (KINOMEscan)
From the text: (§1) Supplement pone.0044653.s004.xls, sheet "Compound 122" | column: Percent Competition

ACVR2A = target: T2, ACVR2A (Homo sapiens, UniProt P27037); conditions: compound concentration 10 uM, read-out: Percent Competition
T2 construct: purchased Ambit Biosciences (KINOMEscan)
From the text: as §1

MYLK2 = target: T3, MYLK2 (Homo sapiens, UniProt Q9H1R3); conditions: compound concentration 10 uM, read-out: Percent Competition
T3 construct: purchased Ambit Biosciences (KINOMEscan)
From the text: as §1

PRKG2 = target: T4, PRKG2 (Homo sapiens, UniProt Q13237); conditions: compound concentration 10 uM, read-out: Percent Competition
T4 construct: purchased Ambit Biosciences (KINOMEscan)
From the text: as §1

PIM2 = target: T5, PIM2 (Homo sapiens, UniProt Q9P1W9); conditions: compound concentration 10 uM, read-out: Percent Competition
T5 construct: purchased Ambit Biosciences (KINOMEscan)
From the text: as §1

PLK3 = target: T6, PLK3 (Homo sapiens, UniProt Q9H4B4); conditions: compound concentration 10 uM, read-out: Percent Competition
T6 construct: purchased Ambit Biosciences (KINOMEscan)
From the text: as §1

NEK2 = target: T7, NEK2 (Homo sapiens, UniProt P51955); conditions: compound concentration 10 uM, read-out: Percent Competition
T7 construct: purchased Ambit Biosciences (KINOMEscan)
From the text: as §1

[1] = target: T8, RPS6KA2(Kin.Dom.2-C-terminal) (Homo sapiens, UniProt Q15349); conditions: compound concentration 10 uM, read-out: Percent Competition
T8 construct: RPS6KA2(Kin.Dom.2-C-terminal); purchased Ambit Biosciences (KINOMEscan)
From the text: as §1

PIK3CA = target: T9, PIK3CA (Homo sapiens, UniProt P42336); conditions: compound concentration 10 uM, read-out: Percent Competition
T9 construct: purchased Ambit Biosciences (KINOMEscan)
From the text: as §1

[2] = target: T10, RPS6KA3(Kin.Dom.1-N-terminal) (Homo sapiens, UniProt P51812); conditions: compound concentration 10 uM, read-out: Percent Competition
T10 construct: RPS6KA3(Kin.Dom.1-N-terminal); purchased Ambit Biosciences (KINOMEscan)
From the text: as §1

AKT1 = target: T11, AKT1 (Homo sapiens, UniProt P31749); conditions: compound concentration 10 uM, read-out: Percent Competition
T11 construct: purchased Ambit Biosciences (KINOMEscan)
From the text: as §1

PKN1 = target: T12, PKN1 (Homo sapiens, UniProt Q16512); conditions: compound concentration 10 uM, read-out: Percent Competition
T12 construct: purchased Ambit Biosciences (KINOMEscan)
T12 sequence (Q16512 whole entry): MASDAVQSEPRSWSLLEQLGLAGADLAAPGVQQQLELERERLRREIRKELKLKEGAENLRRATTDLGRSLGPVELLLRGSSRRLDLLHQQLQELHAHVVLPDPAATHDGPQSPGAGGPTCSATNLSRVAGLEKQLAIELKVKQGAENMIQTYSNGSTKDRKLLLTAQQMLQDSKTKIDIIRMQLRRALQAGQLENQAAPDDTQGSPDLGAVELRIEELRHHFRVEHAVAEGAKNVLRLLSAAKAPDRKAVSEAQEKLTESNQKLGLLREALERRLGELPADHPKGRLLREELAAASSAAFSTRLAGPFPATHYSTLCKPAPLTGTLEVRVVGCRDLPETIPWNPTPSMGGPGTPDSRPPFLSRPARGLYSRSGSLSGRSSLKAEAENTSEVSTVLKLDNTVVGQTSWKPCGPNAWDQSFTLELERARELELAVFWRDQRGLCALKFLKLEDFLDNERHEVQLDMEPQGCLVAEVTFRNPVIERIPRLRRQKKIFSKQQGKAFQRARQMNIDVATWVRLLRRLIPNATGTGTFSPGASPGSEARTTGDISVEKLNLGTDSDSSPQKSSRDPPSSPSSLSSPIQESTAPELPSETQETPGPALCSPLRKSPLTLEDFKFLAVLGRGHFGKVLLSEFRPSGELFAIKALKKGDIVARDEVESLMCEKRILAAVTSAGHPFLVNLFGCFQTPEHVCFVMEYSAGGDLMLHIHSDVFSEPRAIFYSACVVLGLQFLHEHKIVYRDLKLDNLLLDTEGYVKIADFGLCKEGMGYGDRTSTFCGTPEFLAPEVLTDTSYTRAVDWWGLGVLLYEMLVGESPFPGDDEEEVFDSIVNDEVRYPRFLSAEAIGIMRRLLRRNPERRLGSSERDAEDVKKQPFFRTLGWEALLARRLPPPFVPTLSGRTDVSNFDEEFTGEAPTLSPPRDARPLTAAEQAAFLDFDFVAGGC
From the text: as §1

PRKX = target: T13, PRKX (Homo sapiens, UniProt P51817); conditions: compound concentration 10 uM, read-out: Percent Competition
T13 construct: purchased Ambit Biosciences (KINOMEscan)
From the text: as §1

SIK2 = target: T14, SIK2 (Homo sapiens, UniProt Q9H0K1); conditions: compound concentration 10 uM, read-out: Percent Competition
T14 construct: purchased Ambit Biosciences (KINOMEscan)
From the text: as §1

NDR2 = target: T15, NDR2 (Homo sapiens, UniProt Q9Y2H1); conditions: compound concentration 10 uM, read-out: Percent Competition
T15 construct: purchased Ambit Biosciences (KINOMEscan)
From the text: as §1

MLK1 = target: T16, MLK1 (Homo sapiens, UniProt P80192); conditions: compound concentration 10 uM, read-out: Percent Competition
T16 construct: purchased Ambit Biosciences (KINOMEscan)
From the text: as §1

ERK5 = target: T17, ERK5 (Homo sapiens, UniProt Q13164); conditions: compound concentration 10 uM, read-out: Percent Competition
T17 construct: purchased Ambit Biosciences (KINOMEscan)
From the text: as §1

MET = target: T18, MET (Homo sapiens, UniProt P08581); conditions: compound concentration 10 uM
T18 construct: purchased Ambit Biosciences (KINOMEscan)
From the text: as §1

[3] = target: T19, JAK1(JH1domain-catalytic) (Homo sapiens, UniProt P23458); conditions: compound concentration 10 uM
T19 construct: JAK1(JH1domain-catalytic); purchased Ambit Biosciences (KINOMEscan)
From the text: as §1

RET(V804M) = target: T20, RET(V804M) (Homo sapiens, UniProt P07949, V804M); conditions: compound concentration 10 uM, read-out: Percent Competition
T20 construct: purchased Ambit Biosciences (KINOMEscan)
T20 sequence (P07949 29-1114 V804M): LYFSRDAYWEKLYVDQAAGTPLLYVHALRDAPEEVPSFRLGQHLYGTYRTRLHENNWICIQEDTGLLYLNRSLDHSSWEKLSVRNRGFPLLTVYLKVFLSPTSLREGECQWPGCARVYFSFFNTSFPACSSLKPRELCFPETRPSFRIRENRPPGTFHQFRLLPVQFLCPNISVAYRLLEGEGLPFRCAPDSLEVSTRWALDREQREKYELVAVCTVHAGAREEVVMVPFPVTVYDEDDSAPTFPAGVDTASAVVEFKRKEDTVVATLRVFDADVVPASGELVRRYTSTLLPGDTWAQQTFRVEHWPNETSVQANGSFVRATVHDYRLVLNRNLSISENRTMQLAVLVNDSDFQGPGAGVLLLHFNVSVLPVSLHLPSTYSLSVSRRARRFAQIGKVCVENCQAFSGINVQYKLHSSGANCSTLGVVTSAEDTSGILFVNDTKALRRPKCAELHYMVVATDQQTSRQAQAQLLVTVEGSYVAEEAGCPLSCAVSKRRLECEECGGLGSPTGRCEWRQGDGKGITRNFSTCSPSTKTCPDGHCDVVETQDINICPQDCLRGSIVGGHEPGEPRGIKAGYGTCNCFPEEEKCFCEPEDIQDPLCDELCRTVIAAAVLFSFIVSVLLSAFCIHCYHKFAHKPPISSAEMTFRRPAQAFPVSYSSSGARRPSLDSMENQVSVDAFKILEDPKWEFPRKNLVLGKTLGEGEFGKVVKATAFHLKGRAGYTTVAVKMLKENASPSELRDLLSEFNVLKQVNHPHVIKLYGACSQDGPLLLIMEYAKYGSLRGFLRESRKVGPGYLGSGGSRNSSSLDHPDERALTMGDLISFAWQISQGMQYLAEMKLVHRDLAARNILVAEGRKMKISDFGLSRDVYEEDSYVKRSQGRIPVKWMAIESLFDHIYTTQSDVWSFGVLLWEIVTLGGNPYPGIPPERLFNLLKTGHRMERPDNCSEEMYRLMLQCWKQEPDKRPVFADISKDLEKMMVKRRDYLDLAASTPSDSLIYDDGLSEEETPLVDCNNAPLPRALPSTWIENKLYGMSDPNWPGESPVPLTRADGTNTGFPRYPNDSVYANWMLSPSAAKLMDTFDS
From the text: as §1

ABL1(H396P) = target: T21, ABL1(H396P) (Homo sapiens, UniProt P00519, H396P); conditions: compound concentration 10 uM, read-out: Percent Competition
T21 construct: purchased Ambit Biosciences (KINOMEscan)
From the text: as §1

DRAK1 = target: T22, DRAK1 (Homo sapiens, UniProt Q9UEE5); conditions: compound concentration 10 uM, read-out: Percent Competition
T22 construct: purchased Ambit Biosciences (KINOMEscan)
T22 sequence (Q9UEE5 whole entry): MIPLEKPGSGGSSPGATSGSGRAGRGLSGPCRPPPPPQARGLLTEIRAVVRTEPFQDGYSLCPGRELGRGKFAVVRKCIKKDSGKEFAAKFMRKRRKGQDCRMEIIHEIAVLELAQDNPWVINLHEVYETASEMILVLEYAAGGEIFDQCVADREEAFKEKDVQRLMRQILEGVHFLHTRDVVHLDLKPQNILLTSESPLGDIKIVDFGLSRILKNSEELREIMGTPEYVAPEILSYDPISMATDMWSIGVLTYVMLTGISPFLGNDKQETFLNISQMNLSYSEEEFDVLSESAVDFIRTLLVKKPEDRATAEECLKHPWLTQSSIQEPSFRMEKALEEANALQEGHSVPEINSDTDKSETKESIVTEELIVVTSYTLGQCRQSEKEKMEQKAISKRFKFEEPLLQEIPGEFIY
From the text: as §1

RIOK1 = target: T23, RIOK1 (Homo sapiens, UniProt Q9BRS2); conditions: compound concentration 10 uM, read-out: Percent Competition
T23 construct: purchased Ambit Biosciences (KINOMEscan)
T23 sequence (Q9BRS2 whole entry): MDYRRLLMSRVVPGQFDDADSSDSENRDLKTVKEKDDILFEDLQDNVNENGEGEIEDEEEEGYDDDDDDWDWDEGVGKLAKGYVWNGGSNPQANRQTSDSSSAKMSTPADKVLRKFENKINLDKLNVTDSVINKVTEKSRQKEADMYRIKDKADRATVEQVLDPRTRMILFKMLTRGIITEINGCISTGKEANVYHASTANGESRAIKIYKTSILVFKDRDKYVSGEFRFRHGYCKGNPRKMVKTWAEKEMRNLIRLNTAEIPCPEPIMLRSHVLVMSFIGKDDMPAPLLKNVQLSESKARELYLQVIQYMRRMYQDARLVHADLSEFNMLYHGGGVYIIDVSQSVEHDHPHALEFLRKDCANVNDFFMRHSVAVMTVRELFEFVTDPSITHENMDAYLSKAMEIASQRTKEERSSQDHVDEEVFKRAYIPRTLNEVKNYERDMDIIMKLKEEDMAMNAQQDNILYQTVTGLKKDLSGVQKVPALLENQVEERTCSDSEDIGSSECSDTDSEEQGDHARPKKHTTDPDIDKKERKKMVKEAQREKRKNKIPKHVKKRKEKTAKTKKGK
From the text: as §1

CAMKK2 = target: T24, CAMKK2 (Homo sapiens, UniProt Q96RR4); conditions: compound concentration 10 uM, read-out: Percent Competition
T24 construct: purchased Ambit Biosciences (KINOMEscan)
From the text: as §1

HCK = target: T25, HCK (Homo sapiens, UniProt P08631); conditions: compound concentration 10 uM, read-out: Percent Competition
T25 construct: purchased Ambit Biosciences (KINOMEscan)
From the text: as §1

RET(V804L) = target: T26, RET(V804L) (Homo sapiens, UniProt P07949, V804L); conditions: compound concentration 10 uM, read-out: Percent Competition
T26 construct: purchased Ambit Biosciences (KINOMEscan)
T26 sequence (P07949 29-1114 V804L): as the sequence (P07949 29-1114 V804M) above, with M776L counted along it
From the text: as §1

MST1 = target: T27, MST1 (Homo sapiens, UniProt Q13043); conditions: compound concentration 10 uM
T27 construct: purchased Ambit Biosciences (KINOMEscan)
From the text: as §1

PHKG1 = target: T28, PHKG1 (Homo sapiens, UniProt Q16816); conditions: compound concentration 10 uM, read-out: Percent Competition
T28 construct: purchased Ambit Biosciences (KINOMEscan)
From the text: as §1

DAPK2 = target: T29, DAPK2 (Homo sapiens, UniProt Q9UIK4); conditions: compound concentration 10 uM, read-out: Percent Competition
T29 construct: purchased Ambit Biosciences (KINOMEscan)
From the text: as §1

MLCK = target: T30, MLCK (Homo sapiens, UniProt Q32MK0); conditions: compound concentration 10 uM, read-out: Percent Competition
T30 construct: purchased Ambit Biosciences (KINOMEscan)
From the text: as §1

PIK3CB = target: T31, PIK3CB (Homo sapiens, UniProt P42338); conditions: compound concentration 10 uM, read-out: Percent Competition
T31 construct: purchased Ambit Biosciences (KINOMEscan)
From the text: as §1

FGFR3(G697C) = target: T32, FGFR3(G697C) (Homo sapiens, UniProt P22607, G697C); conditions: compound concentration 10 uM, read-out: Percent Competition
T32 construct: purchased Ambit Biosciences (KINOMEscan)
From the text: as §1

FLT3(N841I) = target: T33, FLT3(N841I) (Homo sapiens, UniProt P36888, N841I); conditions: compound concentration 10 uM, read-out: Percent Competition
T33 construct: purchased Ambit Biosciences (KINOMEscan)
From the text: as §1

ABL1(Y253F) = target: T34, ABL1(Y253F) (Homo sapiens, UniProt P00519, Y253F); conditions: compound concentration 10 uM, read-out: Percent Competition
T34 construct: purchased Ambit Biosciences (KINOMEscan)
From the text: as §1

MAP4K3 = target: T35, MAP4K3 (Homo sapiens, UniProt Q8IVH8); conditions: compound concentration 10 uM
T35 construct: purchased Ambit Biosciences (KINOMEscan)
From the text: as §1

TLK2 = target: T36, TLK2 (Homo sapiens, UniProt Q86UE8); conditions: compound concentration 10 uM, read-out: Percent Competition
T36 construct: purchased Ambit Biosciences (KINOMEscan)
From the text: as §1

PKMYT1 = target: T37, PKMYT1 (Homo sapiens, UniProt Q99640); conditions: compound concentration 10 uM
T37 construct: purchased Ambit Biosciences (KINOMEscan)
From the text: as §1

FGFR1 = target: T38, FGFR1 (Homo sapiens, UniProt P11362); conditions: compound concentration 10 uM, read-out: Percent Competition
T38 construct: purchased Ambit Biosciences (KINOMEscan)
From the text: as §1

ULK2 = target: T39, ULK2 (Homo sapiens, UniProt Q8IYT8); conditions: compound concentration 10 uM, read-out: Percent Competition
T39 construct: purchased Ambit Biosciences (KINOMEscan)
T39 sequence (Q8IYT8 whole entry): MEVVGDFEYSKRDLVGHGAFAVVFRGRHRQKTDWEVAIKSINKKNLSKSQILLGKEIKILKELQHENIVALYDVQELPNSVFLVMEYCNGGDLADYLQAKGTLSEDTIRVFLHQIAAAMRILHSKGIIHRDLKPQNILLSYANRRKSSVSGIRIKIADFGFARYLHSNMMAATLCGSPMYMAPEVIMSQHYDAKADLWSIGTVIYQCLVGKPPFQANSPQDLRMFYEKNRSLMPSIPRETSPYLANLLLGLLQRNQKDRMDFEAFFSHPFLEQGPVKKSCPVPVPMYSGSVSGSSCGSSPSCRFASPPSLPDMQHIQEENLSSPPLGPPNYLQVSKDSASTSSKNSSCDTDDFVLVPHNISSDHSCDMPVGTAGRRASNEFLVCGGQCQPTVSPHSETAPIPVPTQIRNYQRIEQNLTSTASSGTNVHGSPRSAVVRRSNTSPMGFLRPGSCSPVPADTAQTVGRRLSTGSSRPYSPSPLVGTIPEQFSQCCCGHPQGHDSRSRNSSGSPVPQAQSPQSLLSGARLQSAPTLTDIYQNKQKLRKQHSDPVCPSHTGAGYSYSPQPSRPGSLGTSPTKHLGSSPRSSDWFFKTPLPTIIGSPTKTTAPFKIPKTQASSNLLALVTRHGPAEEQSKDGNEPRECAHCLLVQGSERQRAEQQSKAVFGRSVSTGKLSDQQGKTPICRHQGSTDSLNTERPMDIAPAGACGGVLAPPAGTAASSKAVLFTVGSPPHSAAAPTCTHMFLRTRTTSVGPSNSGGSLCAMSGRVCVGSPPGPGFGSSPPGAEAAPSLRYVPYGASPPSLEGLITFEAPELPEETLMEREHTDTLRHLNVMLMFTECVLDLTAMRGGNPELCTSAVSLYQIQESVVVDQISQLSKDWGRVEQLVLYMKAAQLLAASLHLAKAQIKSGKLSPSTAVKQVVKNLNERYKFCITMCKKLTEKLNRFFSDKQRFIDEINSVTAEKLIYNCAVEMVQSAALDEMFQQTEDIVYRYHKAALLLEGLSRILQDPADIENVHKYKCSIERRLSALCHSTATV
From the text: as §1

ALK = target: T40, ALK (Homo sapiens, UniProt Q9UM73); conditions: compound concentration 10 uM, read-out: Percent Competition
T40 construct: purchased Ambit Biosciences (KINOMEscan)
From the text: as §1

T1 sequence (Q8TD19 whole entry): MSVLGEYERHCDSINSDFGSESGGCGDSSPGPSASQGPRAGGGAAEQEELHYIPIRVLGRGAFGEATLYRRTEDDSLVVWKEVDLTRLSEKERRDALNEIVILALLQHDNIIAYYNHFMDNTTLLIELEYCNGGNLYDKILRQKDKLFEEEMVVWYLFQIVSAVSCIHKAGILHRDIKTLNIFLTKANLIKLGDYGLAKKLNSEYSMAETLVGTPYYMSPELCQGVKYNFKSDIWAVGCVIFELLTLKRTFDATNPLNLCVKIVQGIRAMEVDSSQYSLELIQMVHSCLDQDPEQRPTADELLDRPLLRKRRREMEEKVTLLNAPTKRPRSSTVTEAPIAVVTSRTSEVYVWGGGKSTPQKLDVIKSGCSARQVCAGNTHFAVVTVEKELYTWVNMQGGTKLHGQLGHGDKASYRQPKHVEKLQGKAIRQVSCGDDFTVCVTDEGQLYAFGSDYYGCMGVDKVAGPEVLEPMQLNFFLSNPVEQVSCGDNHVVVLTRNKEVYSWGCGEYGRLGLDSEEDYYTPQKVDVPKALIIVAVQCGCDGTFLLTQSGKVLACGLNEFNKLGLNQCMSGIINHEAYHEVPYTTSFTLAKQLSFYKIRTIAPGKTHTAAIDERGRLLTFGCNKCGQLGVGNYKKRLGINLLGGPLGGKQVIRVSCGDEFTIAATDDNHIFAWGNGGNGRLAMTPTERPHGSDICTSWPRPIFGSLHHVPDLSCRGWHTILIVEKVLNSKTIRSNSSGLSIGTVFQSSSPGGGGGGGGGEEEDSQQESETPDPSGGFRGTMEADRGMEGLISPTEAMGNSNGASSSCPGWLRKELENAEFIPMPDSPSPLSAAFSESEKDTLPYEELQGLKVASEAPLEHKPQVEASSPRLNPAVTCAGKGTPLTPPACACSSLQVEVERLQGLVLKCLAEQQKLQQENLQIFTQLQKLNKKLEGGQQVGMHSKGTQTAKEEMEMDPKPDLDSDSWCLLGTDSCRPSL

Fc1ccc(-c2c(-c3ccncc3)[nH]c3nccnc23)cc1 [RO1155697-000-005]
< 50%: inhibition at 10 µM (NEK9) | inhibition at 10 µM (ACVR2A) | inhibition at 10 µM (MYLK2) | inhibition at 10 µM (PRKG2) | inhibition at 10 µM (PIM2) | inhibition at 10 µM (PLK3) | inhibition at 10 µM (NEK2) | inhibition at 10 µM [1] | inhibition at 10 µM (PIK3CA) | inhibition at 10 µM [2] | inhibition at 10 µM (AKT1) | inhibition at 10 µM (PKN1) | inhibition at 10 µM (PRKX) | inhibition at 10 µM (SIK2) | inhibition at 10 µM (NDR2) | inhibition at 10 µM (MLK1) | inhibition at 10 µM (ERK5) | inhibition at 10 µM (RET(V804M)) | inhibition at 10 µM (ABL1(H396P)) | inhibition at 10 µM (DRAK1) | inhibition at 10 µM (RIOK1) | inhibition at 10 µM (CAMKK2) | inhibition at 10 µM (HCK) | inhibition at 10 µM (RET(V804L)) | inhibition at 10 µM (PHKG1) | inhibition at 10 µM (DAPK2) | inhibition at 10 µM (MLCK) | inhibition at 10 µM (PIK3CB) | inhibition at 10 µM (FGFR3(G697C)) | inhibition at 10 µM (FLT3(N841I)) | inhibition at 10 µM (ABL1(Y253F)) | inhibition at 10 µM (TLK2) | inhibition at 10 µM (FGFR1) | inhibition at 10 µM (ULK2) | inhibition at 10 µM (ALK)
<50%: Percent Competition (MET) | Percent Competition [3] | Percent Competition (MST1) | Percent Competition (MAP4K3) | Percent Competition (PKMYT1)

Source: article PMC3445516 (PLoS ONE, 2012)
